Assay results from patent publication US20020090341A1, “Method” (NYCOMED IMAGING AS, priority 1997, published 2002).
Where two headings read alike, the source gives them in different places.

What was measured:
[1] = test system: normal and reperfused infarcted myocardium; details: 90 minutes post injection
Method: (§1) Sprague-Dawley rats (female, 270-320 g, n=24) were subjected to occlusion of the anterior branch of the left main coronary artery for 60 minutes, followed by reperfusion for 120 minutes before injecting the test agent. A catheter was placed in the tail vein for administration of contrast media. Animals were connected to an ECG patient monitor and placed in the magnet such that the heart of each rat was at or near ioscenter. Magnetic field was optimized for a central slab of 6 mm thickness, within which the 2 mm section to be imaged was located. Inversion and slice select pulses were calibrated. Inversion recovery echo planar imaging was then used to measure baseline T1 values for myocardium and left ventricle chamber blood.
(§2) MnDPDP was then administered at doses of 25, 50 and 100 μmole/kg by intravenous injection of 2.5, 5 and 10 ml/kg, respectively, of the test solution which contained a 10 mM solution of MnDPDP. These injections were followed by a flush of physiologic saline solution (0.9%) such that the combined volumes of test agent and saline flush was 11 ml/kg. All injected solutions were warmed before being administered and were injected slowly over 1.5 mins. T1 values were remeasured at 5 minute intervals during the first 60 minutes after injection. Occasional animals were imaged at 90 minutes for T1 determination (EPI) and for visual inspection of contrast on STIR (short TI inversion recovery) prepared spin echo images.

[2] = test system: normal and reperfused infarcted myocardium; experiment: inversion recovery echo planar imaging T1 measurement after coronary occlusion 60 min and reperfusion 120 min
Method: as §1, §2
After imaging was completed, animals were sacrificed by an overdose of pentobarbital and the heart was excised, sectioned and stained in triphenyltetrazolium chloride solution to define the infarcted region.

[3] = 25 μmol/kg, 5 min after injection
[4] = 25 μmol/kg, 10 min after injection
[5] = 25 μmol/kg, 15 min after injection
[6] = 25 μmol/kg, 20 min after injection
[7] = 25 μmol/kg, 25 min after injection
[8] = 25 μmol/kg, 30 min after injection
[9] = 25 μmol/kg, 35 min after injection
[10] = 25 μmol/kg, 40 min after injection
[11] = 25 μmol/kg, 45 min after injection
[12] = 25 μmol/kg, 50 min after injection
[13] = 25 μmol/kg, 55 min after injection
[14] = 25 μmol/kg, 60 min after injection
[15] = 50 μmol/kg, 5 min after injection
[16] = 50 μmol/kg, 10 min after injection
[17] = 50 μmol/kg, 15 min after injection
[18] = 50 μmol/kg, 20 min after injection
[19] = 50 μmol/kg, 25 min after injection
[20] = 50 μmol/kg, 30 min after injection
[21] = 50 μmol/kg, 35 min after injection
[22] = 50 μmol/kg, 40 min after injection
[23] = 50 μmol/kg, 45 min after injection
[24] = 50 μmol/kg, 50 min after injection
[25] = 50 μmol/kg, 55 min after injection
[26] = 50 μmol/kg, 60 min after injection
[27] = 100 μmol/kg, 5 min after injection
[28] = 100 μmol/kg, 10 min after injection
[29] = 100 μmol/kg, 15 min after injection
[30] = 100 μmol/kg, 20 min after injection
[31] = 100 μmol/kg, 25 min after injection
[32] = 100 μmol/kg, 30 min after injection
[33] = 100 μmol/kg, 35 min after injection
[34] = 100 μmol/kg, 40 min after injection
[35] = 100 μmol/kg, 45 min after injection
[36] = 100 μmol/kg, 50 min after injection
[37] = 100 μmol/kg, 55 min after injection
[38] = 100 μmol/kg, 60 min after injection

Cc1ncc(COP(=O)(O)O)c(CN(CCN(CC(=O)[O-])Cc2c(COP(=O)(O)O)cnc(C)c2O)CC(=O)[O-])c1O.[Mn+2] [MnDPDP, manganese (II) chelate of N,N′-bis-(pyridoxal-5-phosphate)-ethylenediamine-N,N′-diacetic acid]
SI normal/SI infarct, conventional T1 weighted images ([1]; highest dose): 1.15
SI normal/SI infarct, STIR sequences ([1]; lowest dose): 0.85-1.3
SI normal/SI infarct, conventional T1 weighted images ([1]; lowest dose (n=1)): about 1.25
T1 Blood [2, 3]: 1.04 ± 0.02 s
T1 Infarct [2, 3]: 0.76 ± 0.02 s
T1 normal [2, 3]: 0.77 ± 0.01 s
T1 Blood [2, 4]: 1.11 ± 0.02 s
T1 Infarct [2, 4]: 0.82 ± 0.02 s
T1 normal [2, 4]: 0.76 ± 0.01 s
T1 Blood [2, 5]: 1.14 ± 0.02 s
T1 Infarct [2, 5]: 0.86 ± 0.03 s
T1 normal [2, 5]: 0.75 ± 0.01 s
T1 Blood [2, 6]: 1.16 ± 0.02 s
T1 Infarct [2, 6]: 0.90 ± 0.03 s
T1 normal [2, 6]: 0.73 ± 0.01 s
T1 Blood [2, 7]: 1.18 ± 0.02 s
T1 Infarct [2, 7]: 0.92 ± 0.03 s
T1 normal [2, 7]: 0.72 ± 0.01 s
T1 Blood [2, 8]: 1.18 ± 0.02 s
T1 Infarct [2, 8]: 0.93 ± 0.03 s
T1 normal [2, 8]: 0.70 ± 0.01 s
T1 Blood [2, 9]: 1.19 ± 0.02 s
T1 Infarct [2, 9]: 0.95 ± 0.03 s
T1 normal [2, 9]: 0.70 ± 0.01 s
T1 Blood [2, 10]: 1.20 ± 0.02 s
T1 Infarct [2, 10]: 0.98 ± 0.03 s
T1 normal [2, 10]: 0.69 ± 0.01 s
T1 Blood [2, 11]: 1.21 ± 0.02 s
T1 Infarct [2, 11]: 0.99 ± 0.03 s
T1 normal [2, 11]: 0.68 ± 0.01 s
T1 Blood [2, 12]: 1.22 ± 0.02 s
T1 Infarct [2, 12]: 1.00 ± 0.03 s
T1 normal [2, 12]: 0.67 ± 0.01 s
T1 Blood [2, 13]: 1.22 ± 0.02 s
T1 Infarct [2, 13]: 1.01 ± 0.03 s
T1 normal [2, 13]: 0.67 ± 0.01 s
T1 Blood [2, 14]: 1.23 ± 0.02 s
T1 Infarct [2, 14]: 1.02 ± 0.03 s
T1 normal [2, 14]: 0.65 ± 0.01 s
T1 Blood [2, 15]: 0.84 ± 0.02 s
T1 Infarct [2, 15]: 0.59 ± 0.01 s
T1 normal [2, 15]: 0.69 ± 0.01 s
T1 Blood [2, 16]: 0.93 ± 0.03 s
T1 Infarct [2, 16]: 0.65 ± 0.01 s
T1 normal [2, 16]: 0.68 ± 0.01 s
T1 Blood [2, 17]: 0.97 ± 0.02 s
T1 Infarct [2, 17]: 0.69 ± 0.01 s
T1 normal [2, 17]: 0.67 ± 0.01 s
T1 Blood [2, 18]: 1.00 ± 0.02 s
T1 Infarct [2, 18]: 0.73 ± 0.01 s
T1 normal [2, 18]: 0.67 ± 0.01 s
T1 Blood [2, 19]: 1.02 ± 0.03 s
T1 Infarct [2, 19]: 0.76 ± 0.02 s
T1 normal [2, 19]: 0.64 ± 0.01 s
T1 Blood [2, 20]: 1.04 ± 0.03 s
T1 Infarct [2, 20]: 0.80 ± 0.01 s
T1 normal [2, 20]: 0.63 ± 0.01 s
T1 Blood [2, 21]: 1.05 ± 0.03 s
T1 Infarct [2, 21]: 0.82 ± 0.02 s
T1 normal [2, 21]: 0.62 ± 0.01 s
T1 Blood [2, 22]: 1.06 ± 0.03 s
T1 Infarct [2, 22]: 0.85 ± 0.03 s
T1 normal [2, 22]: 0.60 ± 0.01 s
T1 Blood [2, 23]: 1.08 ± 0.03 s
T1 Infarct [2, 23]: 0.87 ± 0.02 s
T1 normal [2, 23]: 0.60 ± 0.01 s
T1 Blood [2, 24]: 1.08 ± 0.03 s
T1 Infarct [2, 24]: 0.88 ± 0.02 s
T1 normal [2, 24]: 0.59 ± 0.01 s
T1 Blood [2, 25]: 1.08 ± 0.03 s
T1 Infarct [2, 25]: 0.89 ± 0.03 s
T1 normal [2, 25]: 0.58 ± 0.01 s
T1 Blood [2, 26]: 1.10 ± 0.03 s
T1 Infarct [2, 26]: 0.91 ± 0.03 s
T1 normal [2, 26]: 0.58 ± 0.01 s
T1 Blood [2, 27]: 0.63 ± 0.03 s
T1 Infarct [2, 27]: 0.46 ± 0.02 s
T1 normal [2, 27]: 0.59 ± 0.01 s
T1 Blood [2, 28]: 0.74 ± 0.03 s
T1 Infarct [2, 28]: 0.47 ± 0.02 s
T1 normal [2, 28]: 0.59 ± 0.01 s
T1 Blood [2, 29]: 0.80 ± 0.02 s
T1 Infarct [2, 29]: 0.51 ± 0.02 s
T1 normal [2, 29]: 0.58 ± 0.01 s
T1 Blood [2, 30]: 0.83 ± 0.02 s
T1 Infarct [2, 30]: 0.55 ± 0.03 s
T1 normal [2, 30]: 0.57 ± 0.01 s
T1 Blood [2, 31]: 0.87 ± 0.02 s
T1 Infarct [2, 31]: 0.58 ± 0.03 s
T1 normal [2, 31]: 0.57 ± 0.01 s
T1 Blood [2, 32]: 0.89 ± 0.02 s
T1 Infarct [2, 32]: 0.60 ± 0.03 s
T1 normal [2, 32]: 0.55 ± 0.01 s
T1 Blood [2, 33]: 0.91 ± 0.03 s
T1 Infarct [2, 33]: 0.61 ± 0.03 s
T1 normal [2, 33]: 0.54 ± 0.01 s
T1 Blood [2, 34]: 0.92 ± 0.03 s
T1 Infarct [2, 34]: 0.63 ± 0.03 s
T1 normal [2, 34]: 0.54 ± 0.01 s
T1 Blood [2, 35]: 0.93 ± 0.03 s
T1 Infarct [2, 35]: 0.65 ± 0.03 s
T1 normal [2, 35]: 0.53 ± 0.01 s
T1 Blood [2, 36]: 0.94 ± 0.03 s
T1 Infarct [2, 36]: 0.66 ± 0.03 s
T1 normal [2, 36]: 0.53 ± 0.01 s
T1 Blood [2, 37]: 0.97 ± 0.02 s
T1 Infarct [2, 37]: 0.69 ± 0.03 s
T1 normal [2, 37]: 0.52 ± 0.01 s
T1 Blood [2, 38]: 0.97 ± 0.03 s
T1 Infarct [2, 38]: 0.69 ± 0.03 s
T1 normal [2, 38]: 0.52 ± 0.01 s
slow E2 component ([2]; blood pool clearance): ~0.01 per min
E1, bi-exponential fit of ΔR1 clearance ([2]; dose 25, ROI blood): 0.21 min⁻¹
E2, bi-exponential fit of ΔR1 clearance ([2]; dose 25, ROI blood): 0.011 ± 0.001 min⁻¹
E1, bi-exponential fit of ΔR1 clearance ([2]; dose 25, ROI infarct): 0.15 min⁻¹
E2, bi-exponential fit of ΔR1 clearance ([2]; dose 25, ROI infarct): 0.015 ± 0.001 min⁻¹
intercept, linear fit - increase in normal myocardium ([2]; dose 25, ROI normal): 0.187
slope, linear fit - increase in normal myocardium ([2]; dose 25, ROI normal): 0.0043 min⁻¹
E1, bi-exponential fit of ΔR1 clearance ([2]; dose 50, ROI blood): 0.15 min⁻¹
E2, bi-exponential fit of ΔR1 clearance ([2]; dose 50, ROI blood): 0.009 ± 0.001 min⁻¹
E1, bi-exponential fit of ΔR1 clearance ([2]; dose 50, ROI infarct): 0.058 min⁻¹
E2, bi-exponential fit of ΔR1 clearance ([2]; dose 50, ROI infarct): 0.005 ± 0.003 min⁻¹
intercept, linear fit - increase in normal myocardium ([2]; dose 50, ROI normal): 0.294
slope, linear fit - increase in normal myocardium ([2]; dose 50, ROI normal): 0.0056 min⁻¹
E1, bi-exponential fit of ΔR1 clearance ([2]; dose 100, ROI blood): 0.18 min⁻¹
E2, bi-exponential fit of ΔR1 clearance ([2]; dose 100, ROI blood): 0.011 ± 0.001 min⁻¹
E1, bi-exponential fit of ΔR1 clearance ([2]; dose 100, ROI infarct): 0.11 min⁻¹
E2, bi-exponential fit of ΔR1 clearance ([2]; dose 100, ROI infarct): 0.010 ± 0.003 min⁻¹
intercept, linear fit - increase in normal myocardium ([2]; dose 100, ROI normal): 0.523
slope, linear fit - increase in normal myocardium ([2]; dose 100, ROI normal): 0.0050 min⁻¹
plasma half life ([2]; equivalent to E2 component): ~1.17 h
clearance or accumulation of test agent ([2]; over 60 minutes after injection, 25, 50 and 100 μmole/kg): cleared from both blood and infarcted myocardium but accumulated in uninfarcted myocardium
